Reference: patent publication US12104173B2, “Method for differentiation of human pluripotent stem cell lines in suspension culture” (AGENCY FOR SCIENCE, TECHNOLOGY AND RESEARCH, priority 2018, dated 2024)

What was measured:
Assay type in all cases: cell-based, human
[1] = tested on: IMR90 hiPSC line; test: CHIR dose: hematopoietic/erythroid differentiation of agitated hPSC-MC aggregates; conditions: optimal dose of CHIR-99021, day 4
[2] = tested on: hES-3 microcarrier aggregates; test: capillary Western blot of Wnt/β-catenin signalling proteins; conditions: hES-3-MC; upon induction with CHIR (15 μM CHIR, 30 ng/ml BMP4, 40 ng/ml Activin A)
Description: Day 7 hES-3-MC aggregates from static or agitation conditions were subjected to differentiation using BMP4 protocol (50 ng/ml BMP4) or optimized CHIR-based protocol (30 ng/ml BMP4, 40 ng/ml Activin A and 15 μM CHIR). Cell lysates before start of differentiation (0 hours) and 24 hours after onset of differentiation were analysed for proteins involved in Wnt/β-catenin signalling (T-BRA, TCF-1 and LEF-1) and BMP4 signalling (SMAD7, SMAD1 and phospho SMAD1/5) using an automated Capillary Western Blot system (Peggy Sue). All samples including GAPDH as a protein loading control were run in parallel. (A) is an image showing digitalized chemiluminescence signals represented as band intensities. Corresponding molecular weight of detected proteins are indicated. […] Graphical representation of chemiluminescence intensity of proteins (expressed as a percentage of GAPDH expression) involved in (B) Wnt/β-catenin signalling and (C) BMP4 signalling. […]
Capillary Western blot was performed using a fully automated system, Peggy Sue (Proteinsimple, R&D, USA). Proteins were separated, detected and quantified according to manufacturer's protocol (www.proteinsimple.com) based on size separation (12-230 kDa). […] (all from Cell Signaling Technology)[1:50 diluted SMAD7 (Sigma-Aldrich)] followed by horseradish peroxidase conjugated secondary antibody and detected with Luminol/Peroxidase substrate. […]

[3] = tested on: D5 O-neg hiPSC line; test: CHIR dose: hematopoietic/erythroid differentiation of agitated hPSC-MC aggregates; conditions: optimal dose of CHIR-99021, day 4
[4] = tested on: O-neg hiPSC line (D5) expanded in agitated microcarrier cultures; test: DoE multifactorial analysis of KDR+ cells, O-neg hiPSC; conditions: CHIR exposure for 24 hours, 4 days post differentiation
Text: (B) Plot of KDR levels (%) for respective conditions tested (day 4 post differentiation). Conditions 27, 28 and 29 are triplicates of the same condition tested. […] Act=Activin A; CHI=CHIR-99021 for 24 hr, CH2=CHIR-99021 from 24-48 hr; BMP=BMP4. Computed P-values are indicated below the chart.
These findings were also confirmed using an O-neg hiPSC line (D5) expanded in agitated microcarrier cultures (FIG. 6). […] In summary, from the Design of experiment analysis, it was established that a BMP4 dose of 10 to 50 ng/ml, Activin A dose of 25 to 50 ng/ml and exposure of CHIR for 24 hours at a dose of 6 to 12 μM would be efficient for the generation of KDR+ cells.
Design of experiments (DoE) using a resolution IV Fractional Factorial Design was performed using the MODDE software (Sartorius Stedim Biotech, Germany) to evaluate initial BMP4, Activin A and CHIR-99021, doses and duration of exposure for their effects on the following response factors: induction of KDR+ cells 4 days post mesoderm induction or total hematopoietic precursors generated 2 weeks post differentiation. […]

Cc1c[nH]c(-c2cnc(NCCNc3ccc(C#N)cn3)nc2-c2ccc(Cl)cc2Cl)n1 [CHIR-99021, 6-[[2-[[4-(2,4-Dichlorophenyl)-5-(5-methyl-1H-imidazol-2-yl)-2-pyrimidinyl]amino]ethyl]amino]-3-pyridinecarbonitrile]
Mesoderm induction % KDR+ PDGFRα− [1]: 14.2%
Wnt/β-catenin signalling proteins TCF-1, LEF-1 and T-BRA [2]: detected as early as 24 hours
Mesoderm induction % KDR+ PDGFRα− [3]: 35.8%
effect of factor on KDR+ cells (DoE) [4]: significant factors for increased KDR+ cells
